Results reported in patent EP4153181B1, “PHARMACEUTICAL COMPOSITIONS COMPRISING BICTEGRAVIR” (GILEAD SCIENCES, INC., priority 2020, dated 2021).

Tests used:
Details in all cases: IV administration, mean
[1] = Plasma pharmacokinetics of BIC after single SC injection of long acting formulations (and IV infusion) in rat; type: in vivo, male Sprague-Dawley rat
Excerpt: (§1) Pharmacokinetics (PK) following a single BIC SC injection of solution and suspension formulations was characterized in male Sprague-Dawley rat, beagle dog, and cynomolgus monkey. The BIC injectable solution and both suspension formulations display extended-release PK following SC administration in all examined species and support a potential monthly or less frequent dosing regimen. […] Table 1. BIC Plasma Pharmacokinetic Parameters Following a Single Subcutaneous (SC) or Intramuscular (IM) Administration
This study investigated the pharmacokinetics of three formulations of bictegravir (BIC) by subcutaneous administration to determine the potential to deliver a long acting (LA) pharmacokinetic (PK) profile. […] The concentrations of BIC in plasma were determined with a liquid chromatography-tandem mass spectrometry (LC-MS/MS) method. […]
The intravenous dose was administered as a 30-minute infusion via a catheter implanted animals. […] Individual dose was calculated based on body weights recorded on the day of dose administration. […]
For estimation of pharmacokinetic parameters, concentrations reported as below the lower limit of quantification (BLQ) were assigned a value of zero if pre-dose and treated as missing thereafter. […]

[2] = Plasma pharmacokinetics of BIC after single SC injection of long acting formulations (and IV infusion) in dog; type: in vivo, beagle dog
Excerpt: as §1
This study investigated the pharmacokinetics of three formulations of bictegravir (BIC) by subcutaneous administration to determine the potential to deliver a long acting (LA) pharmacokinetic (PK) profile. BIC was administered by a 30-min intravenous (IV) infusion at 0.5 or 1 mg/kg and by subcutaneous (SC) injection of three LA formulations (e.g., NMP solution, HPMC suspension, and PVP suspension) at 10 mg/kg or 100 mg fixed dose to Male Beagle Dogs. The concentrations of BIC in plasma were determined with a liquid chromatography-tandem mass spectrometry (LC-MS/MS) method.
At dosing, the animals weighed between 7.98 and 11.6 kg. The animals from the SC leg with the PVP suspension were not fasted. […]
The intravenous dose was administered as a 30-minute infusion via a saphenous vein. […] Individual dose was calculated based on body weights recorded on the day of dose administration. […]

[3] = Plasma pharmacokinetics of BIC after single SC or IM injection of long acting formulations in monkey; type: in vivo, cynomolgus monkey

O=C(NCc1c(F)cc(F)cc1F)c1cn2c(c(O)c1=O)C(=O)N1[C@H]3CC[C@H](C3)O[C@@H]1C2 [BIC, (2R,5S,13aR)-8-hydroxy-7,9-dioxo-N-(2,4,6-trifluorobenzyl)-2,3,4,5,7,9,13,13a-octahydro-2,5-methanopyrido[1',2':4,5]pyrazino[2,1-b][1,3]oxazepine-10-carboxamide]
systemic elimination rate (ke1 = CL/Vss) [1]: ~ 0.0162 h^-1 | systemic elimination rate (ke1 = CL/Vss) [2]: ~ 0.302 h^-1 | systemic elimination rate (ke1 = CL/Vss) [3]: ~ 0.253 h^-1
